Tested on: S. epidermidis NCIB 11536
Experiment: Antibiotic disc sensitivities of the producer strain
Format: cell-based
Settings: for Sensitive to: Amount of antibiotic/disc: strain sensitive at this disc content

Row | Compound | Sensitive to: Amount of antibiotic/disc | Novobiocin sensitivity (5 μg disc)
1 | gentamycin | 10 µg | –
2 | CO[C@@H]1[C@@H](OC(N)=O)[C@@H](O)[C@H](Oc2ccc3c(O)c(NC(=O)c4ccc(O)c(CC=C(C)C)c4)c(=O)oc3c2C)OC1(C)C [novobiocin] | – | sensitive
3 | CC1(C)S[C@@H]2[C@H](NC(=O)Cc3ccccc3)C(=O)N2[C@H]1C(=O)O [penicillin G] | 1 unit | –

Reference: patent publication US4588692A, “Antibiotic compounds, process for the preparation and pharmaceutical compositions thereof, methods of treatment therewith and Staphylococcus bacteria” (priority 1979, dated 1986)
